The values below come from patent publication US20240374734A1, “Immunomodulatory Combinations of Antigen and Drug-Lipid Conjugate” (Integrated Nanotherapeutics Inc., priority 2021, published 2024).

Where two headings read alike, the source gives them in different places.

The test system of data set [1] is Ova specific CD4+ T cells (OT-II T cells). The data set can be described thus: OT-II CD4+ T cell proliferation after BMDC co-treatment with LNP-mRNA and prodrug-LNP. The data set is classed as cell-based, mice. The following applies: BMDCs treated 48 hours with LNP-mRNA only or LNP-mRNA and separate prodrug LNP. The protocol: The mRNA used in this example is modified to minimize immune stimulation and encodes for full length Ovalbumin (Ova) protein (Trilink, L-7210). Bone marrow-derived dendritic cells (BMDCs) were prepared as previously described and co-cultured with isolated CD4+ T cells (OT-II T cells) that specifically recognize the Ova323-339 epitope loaded in H-2b MHC Class II (C57BL/6 haplotype). Proliferation was assessed based on CFSE dilution by flow cytometry. BMDCs pulsed for 4 hours with free Ova323-339 peptide (0.1 μg/mL) served as an antigen-loaded control (Free Ova Peptide), and untreated BMDCs served as the No Antigen control. 48 hours prior to co-culturing, BMDCs were treated with LNP-mRNA only or LNP-mRNA and LNP containing dexamethasone (D034) or calcitriol (D053) prodrugs.

A short description of data set [2]: Retention of lipid conjugate (prodrug) in LNP after incubation in human plasma. Conditions: 2 hours incubation in human plasma; DSPC/Chol/Prodrug/DSPE-PEG LNP.
Data set [3] has as its system CD4+ T cells from OT-II mice. The data set can be described thus: Antigen-specific OT-II CD4+ T cell proliferation with OVA peptide and prodrug-treated BMDCs. The following applies: BMDCs pre-treated with prodrug LNP, pulsed with free OVA peptide. The data set is classed as cell-based. The text has this: CD4 T cells were collected from OT-II mice. These mice have T cell receptors on CD4+ T cells engineered to bind and react to Ovalbumin 323-339 peptide fragment (OVA) when presented on I-Ab MHC Class II. When APCs are loaded with OVA and mixed with these T cells, a robust proliferation of T cells is observed (akin to having an antigen-specific immune disorder).
For the antigen specific model, splenocytes were isolated from OT-II mice (B6.Cg-Tg (TcraTcrb) 425Cbn/J; Jackson Laboratories). CD4+ T cells were purified by CD4 positive selection (EasySep™ Mouse CD4+ T Cell Isolation Kit, Catalog #19852, Stem Cell Technologies) and labelled with 10 μM CFSE and plated in 96-well U bottom plates at a density of 100,000 cells/well. On the same day, prodrug treated C57BL/6 BMDCs (described above) were harvested, pulsed with/without OVA peptide, irradiated at 30 Gy, and co-cultured with the CD4+ cells for 3 days at T:DC ratios of 50:1, 10:1 and 5:1, in RPMI 1640 media (supplemented with 10% FBS, 10 mM HEPES, 50 μM β-mercaptoethanol, 10 mM sodium pyruvate, 1× GlutaMAX, and 1% Pen/Strep). Subsequently, cells were stained for viability (eBioscience Fixable Viability Dye eFlour780, cat #65-0865) and CD4 (eBioscience CD4 Monoclonal Antibody (RM4-5), cat #48-0042-82), and T cell proliferation was quantified via CFSE dilution by flow cytometry.

A short description of data set [4]: Characterisation of LNP co-loaded with mRNA and prodrugs: Z-Ave, PDI, mRNA and prodrug entrapment. The data set is classed as physicochemical. The protocol: To prepare LNPs that contain mRNA that codes for the antigen, ionizable lipid such as INT-A002 (see page 32 of co-owned WO 2021/026647; Application No. PCT/CA2020/051098, which is incorporated herein by reference), DSPC, cholesterol and PEG-DMG were dissolved in ethanol. Prodrugs were dissolved in ethanol, isopropanol, DMSO or THF. The mRNA was dissolved in 10 mM citrate or 25 mM acetate buffer at pH 4.0. LNP were prepared by rapidly mixing the lipid components in ethanol (in molar ratio of 45/8.5/35/1.5/10 of INT-A002/DSPC/chol/PEG-DMG/prodrugs) with nucleic acids in aqueous buffer at a volumetric flow rate ratio of 1:3 (ethanol to aqueous, combined flow rate 28 ml/min) at room temperature. The product was then dialyzed against 1× phosphate-buffered saline (PBS) at pH 7.4 for 24 hours to remove residual ethanol and to raise the pH.
(§1) The physiochemical properties of the LNPs prepared as described above were subsequently characterized. Particle size was determined by dynamic light scattering using a Malvern Zetasizer Nano ZS (Malvern, UK) following buffer exchange into phosphate-buffered saline. Number-weighted size and distribution data was used. Lipid concentrations were determined by measuring total cholesterol using the Cholesterol E enzymatic assay kit from Wako Chemicals USA (Richmond, VA). mRNA entrapment was determined using a modified Quanti-iT Ribogreen assay (ThermoFisher, Waltham, MA). LNP-mRNA systems were incubated in the presence or absence of 1% Triton X-100 (Sigma-Aldrich, St. Louis, MO). Fluorescence intensities (Ex/Em: 480/520 nm) were compare to determine % mRNA entrapment.

Data set [5] is described as follows: Characterisation of prodrug LNP: particle size, PdI, prodrug entrapment. The data set is classed as physicochemical. Conditions: for % Entrap (Dex/Calcitriol): Calcitriol: Table 2, calcitriol prodrug; for PdI / Size: Table 2, prodrug LNP. The protocol:
Lipid conjugates (prodrugs) were dissolved in ethanol, isopropanol, DMSO or THF. LNP were prepared by rapidly mixing DSPC or DMPC, cholesterol, prodrugs, and PEG-DSPE (in a molar ratio of 49/40/10/1) with phosphate-buffered saline (PBS) using a cross-junction mixer. Formulations were dialyzed against PBS to remove residual ethanol. In cases where a peptide antigen, such as ovalbumin peptide […] (OVA), was co-formulated within the LNP, the peptide is dissolved in PBS and rapidly mixed with the lipid phase. Dialysis or tangential flow filtration was used to remove all unentrapped peptide.
as §1

The conditions of data set [6]: human, plasma, 2 h.
Setting [7] is: Table 6, LNP-mRNA with lipid conjugate.

As for “(1R,3S,Z)-3-hydroxy-5-(2-((1R,3aS,7aR,E)-1-((R)-6-hydroxy-6-methylheptan-2-yl)-7a-methyloctahydro-4H-inden-4-ylidene)ethylidene)-4-methylenecyclohexyl (R,Z)-12-acetoxyoctadec-9-enoate and (1S,5R,Z)-5-hydroxy-3-(2-((1R,3aS,7aR,E)-1-((R)-6-hydroxy-6-methylheptan-2-yl)-7a-methyloctahydro-4H-inden-4-ylidene)ethylidene)-2-methylenecyclohexyl (R,Z)-12-acetoxyoctadec-9-enoate [Prodrug D053]”, in data set [1], the “T-cell proliferation (CFSE dilution)” value is listed as “suppressed”. Also, the “lipid conjugate (prodrug) remaining in LNPs” value in data set [2] was “stably retained”. Also, in data set [3], the “T cell proliferation induced by OVA loaded BMDCs” value was “significantly reduces”. Moreover, in data set [4] (setting [7]), the “% mRNA Entrap.” value is reported as 97% and the PDI is reported as 0.034. For the same compound, the “Z-Ave (nm)” value in data set [4] (Table 6, LNP-mRNA with lipid conjugate (mol %)) turned out to be 69 nm. For the same compound, in data set [5], the “% Entrap (Dex/Calcitriol): Calcitriol” value is given as “—/98%”, the PdI is 0.070 and the Size turned out to be 55 nm.

For `C=C1/C(=C\C=C2/CCC[C@]3(C)[C@@H]([C@H](C)CCCC(C)(C)O)CC[C@@H]23)C[C@@H](OC(=O)CCCCCCC/C=C\C[C@@H](CCCCCC)OC(=O)CCCCCCC/C=C\C/C=C\CCCCC)C[C@@H]1OC(=O)CCCCCCC/C=C\C[C@@H](CCCCCC)OC(=O)CCCCCCC/C=C\C/C=C\CCCCC` [Prodrug D087], in data set [5], the “% Entrap (Dex/Calcitriol): Calcitriol” value is given as “—/99%”, the PdI turned out to be 0.055 and the Size stood at 40 nm.

Consider `CCCCC/C=C\C/C=C\CCCCCCCC(=O)O[C@@H](C/C=C\CCCCCCCCOC(=O)CCC(=O)OCC(=O)[C@@]1(O)[C@H](C)C[C@H]2[C@@H]3CCC4=CC(=O)C=C[C@]4(C)[C@@]3(F)[C@@H](O)C[C@@]21C)CCCCCC` [Prodrug D045, 2-((8S,9R,10S,11S,13S,14S,16R,17R)-9-fluoro-11,17-dihydroxy-10,13,16-trimethyl-3-oxo-6,7,8,9,10,11,12,13,14,15,16,17-dodecahydro-3H-cyclopenta[a]phenanthren-17-yl)-2-oxoethyl ((R,Z)-12-(linoleoyloxy)octadec-9-en-1-yl) succinate], for which the “lipid conjugate (prodrug) remaining in LNPs” value in data set [6] was “stably retained”.
